From patent US10766869B2, “Triazoles for the treatment of demyelinating dieases” (Vertex Pharmaceuticals Incorporated, priority 2015, dated 2020)
Read-outs that look alike come from different tables or passages of the source.

Tested on: primary rat mixed cortical cells
Assay: In vitro myelination assay (MBP positive myelin strands, fold myelin pixels above background)
Assay type: cell-based
Details: Rattus norvegicus; for fold induction at 1 µM: 1.0 μM compound; for fold induction at 10 µM: 10.0 μM compound
Procedure, shortened: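 Myelination read as total MBP-immunopositive strand pixels per well, imaged at 10× after fixation on day 14 and expressed relative to untreated wells, at 1.0 and 10.0 μM. Cells: dissociated postnatal day 1 rat cortex, cultured two weeks with compound, re-dosed at days 6 and 10.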

[1] = relative to baseline of no added compound, read-out: Fold myelin pixels above background, 1.0 μM
[2] = relative to baseline of no added compound, read-out: Fold myelin pixels above background, 10.0 μM
[3] = read-out: Fold myelin pixels above background relative to baseline of no added compound
[4] = relative to baseline of no added compound, read-out: Fold myelin pixels above background

| SMILES | fold induction at 1 µM [1] | fold induction at 10 µM [2] | fold induction at 1 µM [3] | fold induction at 10 µM [3] | fold induction at 1 µM [4] | fold induction at 10 µM [4] |
| --- | --- | --- | --- | --- | --- | --- |
| Fc1cc(Nc2ncn(-c3ccccc3F)n2)cc(N2CCCC2)c1 [Compound 83, 1-(2-fluorophenyl)-N-(3-fluoro-5-pyrrolidin-1-yl-phenyl)-1,2,4-triazol-3-amine] | ≤ 1 | 10 to 100 | – | – | – | – |
| Cc1cc(Nc2ncn(-c3cc(F)cc(F)c3)n2)c(F)c(NC2CCOCC2)c1 [Compound 810, N3-[1-(3,5-difluorophenyl)-1,2,4-triazol-3-yl]-2-fluoro-5-methyl-N1-tetrahydropyran-4-yl-benzene-1,3-diamine] | – | – | 1 to 10 | 1 to 10 | – | – |
| Cc1cc(Nc2ncn(-c3cc(F)cc(F)c3)n2)cc(C2CCNCC2O)c1 (stereo not drawn) [Compound 438, 4-[3-[[1-(3,5-difluorophenyl)-1,2,4-triazol-3-yl]amino]-5-methyl-phenyl]piperidin-3-ol] | – | – | – | – | 10 to 100 | ≤ 1 |
| Cc1cc(Nc2ncn(-c3cc(F)cc(F)c3)n2)nc(N2CCOCC2)c1 [Compound 560, N-[1-(3,5-difluorophenyl)-1,2,4-triazol-3-yl]-4-methyl-6-morpholino-pyridin-2-amine] | – | – | – | – | 10 to 100 | 100 to 1000 |
| COCC1CCN(c2cc(C)cc(Nc3ncn(-c4ccncc4)n3)c2)CC1 [Compound 385, N-[3-[4-(methoxymethyl)-1-piperidyl]-5-methyl-phenyl]-1-(4-pyridyl)-1,2,4-triazol-3-amine] | 100 to 1000 | 100 to 1000 | – | – | – | – |
| CCc1cc(Nc2ncn(-c3cnccn3)n2)cc(N2CCN(C(=O)OC(C)(C)C)CC2)c1 [Compound 368, tert-butyl 4-[3-ethyl-5-[(1-pyrazin-2-yl-1,2,4-triazol-3-yl)amino]phenyl]piperazine-1-carboxylate] | 10 to 100 | 1 to 10 | – | – | – | – |
| Cc1cc(Nc2ncn(-c3cc(F)cc(F)c3)n2)cc(N2CCN(CC(O)CN(C)C)CC2)c1 (stereo not drawn) [Compound 1078, 1-[4-[3-[[1-(3,5-difluorophenyl)-1,2,4-triazol-3-yl]amino]-5-methyl-phenyl]piperazin-1-yl]-3-(dimethylamino)propan-2-ol] | – | – | 1 to 10 | ≤ 1 | – | – |
| Fc1cc(Nc2ncn(-c3ccccc3)n2)cc(N2CCCC2)c1 [Compound 336, N-(3-fluoro-5-pyrrolidin-1-yl-phenyl)-1-phenyl-1,2,4-triazol-3-amine] | 1 to 10 | ≤ 1 | – | – | – | – |
| Cc1cc(Nc2ncn(-c3cccnc3)n2)cc(NC2CCN(C3COC3)CC2)c1 [Compound 342, 5-methyl-N1-[1-(oxetan-3-yl)-4-piperidyl]-N3-[1-(3-pyridyl)-1,2,4-triazol-3-yl]benzene-1,3-diamine] | 1000 to 10000 | 10 to 100 | – | – | – | – |
| Cc1cc(NCC2CCN(C3CCOCC3)CC2)cc(Nc2ncn(-c3cc(F)cc(F)c3)n2)c1 [Compound 1046, N1-[1-(3,5-difluorophenyl)-1,2,4-triazol-3-yl]-5-methyl-N3-[(1-tetrahydropyran-4-yl-4-piperidyl)methyl]benzene-1,3-diamine] | – | – | 1 to 10 | ≤ 1 | – | – |
| CC(=O)N(C)C1CCN(c2cc(C)cc(Nc3ncn(-c4cc(F)cc(F)c4)n3)c2)C1 (stereo not drawn) [Compound 500, N-[1-[3-[[1-(3,5-difluorophenyl)-1,2,4-triazol-3-yl]amino]-5-methyl-phenyl]pyrrolidin-3-yl]-N-methyl-acetamide] | – | – | – | – | 100 to 1000 | 1 to 10 |
| CCN1CC2CC1CN2c1cc(C)cc(Nc2ncn(-c3cc(F)cc(F)c3)n2)c1 (stereo not drawn) [Compound 996, 1-(3,5-difluorophenyl)-N-[3-(5-ethyl-2,5-diazabicyclo[2.2.1]heptan-2-yl)-5-methyl-phenyl]-1,2,4-triazol-3-amine] | – | – | 1 to 10 | ≤ 1 | – | – |
| Fc1ccc(-n2cnc(Nc3cc(Cl)cc(N4CC(N5CCOCC5)C4)c3)n2)cc1F [Compound 784, N-[3-chloro-5-(3-morpholinoazetidin-1-yl)phenyl]-1-(3,4-difluorophenyl)-1,2,4-triazol-3-amine] | – | – | – | – | 10 to 100 | 10 to 100 |
| Cc1c(Nc2ncn(-c3ccccn3)n2)cc(N2CCN(C3COC3)CC2)cc1OC(C)C [Compound 862, N-[3-isopropoxy-2-methyl-5-[4-(oxetan-3-yl)piperazin-1-yl]phenyl]-1-(2-pyridyl)-1,2,4-triazol-3-amine] | – | – | 1 to 10 | 10 to 100 | – | – |
| CCc1cc(Nc2ncn(-c3ccnc(OC)n3)n2)cc(N2CCN(C3COC3)CC2)c1 [Compound 314, N-[3-ethyl-5-[4-(oxetan-3-yl)piperazin-1-yl]phenyl]-1-(2-methoxypyrimidin-4-yl)-1,2,4-triazol-3-amine] | 10 to 100 | 10 to 100 | – | – | – | – |
| [2H]C1([2H])N(CC2COCCO2)C([2H])([2H])C([2H])([2H])N(c2cc(C)cc(Nc3ncn(-c4cc(F)cc(F)c4)n3)c2)C1([2H])[2H] (stereo not drawn) [Compound 885, 1-(3,5-difluorophenyl)-N-[3-methyl-5-[2,2,3,3,5,5,6,6-octadeuterio-4-(1,4-dioxan-2-ylmethyl)piperazin-1-yl]phenyl]-1,2,4-triazol-3-amine] | – | – | 10 to 100 | ≤ 1 | – | – |
| CNC(=O)c1cc(Nc2ncn(-c3cc(F)cc(F)c3)n2)nc(N2CCN(C3COC3)CC2)c1 [Compound 664, 2-[[1-(3,5-difluorophenyl)-1,2,4-triazol-3-yl]amino]-N-methyl-6-[4-(oxetan-3-yl)piperazin-1-yl]pyridine-4-carboxamide] | – | – | – | – | 1 to 10 | 1 to 10 |
| CSc1cccc(-n2cnc(Nc3cc(C)cc(N4CCN(C5COC5)CC4)c3)n2)c1 [Compound 439, N-[3-methyl-5-[4-(oxetan-3-yl)piperazin-1-yl]phenyl]-1-(3-methylsulfanylphenyl)-1,2,4-triazol-3-amine] | – | – | – | – | 1 to 10 | 1 to 10 |
| Fc1cncc(-n2cnc(Nc3cc(C4CC4)cc(N4CCN(C5COC5)CC4)c3)n2)c1 [Compound 339, N-[3-cyclopropyl-5-[4-(oxetan-3-yl)piperazin-1-yl]phenyl]-1-(5-fluoro-3-pyridyl)-1,2,4-triazol-3-amine] | 100 to 1000 | 10 to 100 | – | – | – | – |
| Cc1cc(NCC(N2CCOCC2)C(F)(F)F)cc(Nc2ncn(-c3cc(F)cc(F)c3)n2)c1 (stereo not drawn) [Compound 899, N1-[1-(3,5-difluorophenyl)-1,2,4-triazol-3-yl]-5-methyl-N3-(3,3,3-trifluoro-2-morpholino-propyl)benzene-1,3-diamine] | – | – | 1 to 10 | 1 to 10 | – | – |
| Cc1cc(Nc2ncn(-c3cc(F)cc(F)c3)n2)cc(N2CC(N3CCS(=O)(=O)CC3)C2)c1 [Compound 661, 1-(3,5-difluorophenyl)-N-[3-[3-(1,1-dioxo-1,4-thiazinan-4-yl)azetidin-1-yl]-5-methyl-phenyl]-1,2,4-triazol-3-amine] | – | – | – | – | 10 to 100 | 1 to 10 |
| Cc1cc(Nc2ncn(-c3cc(F)cc(F)c3)n2)cc(N2CC3(CCO3)C2)c1 [Compound 508, 1-(3,5-difluorophenyl)-N-[3-methyl-5-(3-oxa-6-azaspiro[3.3]heptan-6-yl)phenyl]-1,2,4-triazol-3-amine] | – | – | – | – | 100 to 1000 | 10 to 100 |
| Clc1cc(Nc2ncn(-c3ccccc3)n2)cc(N2CCOCC2)n1 [Compound 135, 2-chloro-6-morpholino-N-(1-phenyl-1,2,4-triazol-3-yl)pyridin-4-amine] | 1000 to 10000 | ≤ 1 | – | – | – | – |
| [2H]C1(N2CCN(c3cc(C)cc(Nc4ncn(-c5ccccc5)n4)c3)CC2)CCOC1 (stereo not drawn) [Compound 1039, N-[3-[4-(3-deuteriotetrahydrofuran-3-yl)piperazin-1-yl]-5-methyl-phenyl]-1-phenyl-1,2,4-triazol-3-amine] | – | – | 10 to 100 | ≤ 1 | – | – |
| Cc1cc(Nc2ncn(-c3cc(F)cc(F)c3)n2)cc(N2CCC(O)CC2)c1 [Compound 238, 1-[3-[[1-(3,5-difluorophenyl)-1,2,4-triazol-3-yl]amino]-5-methyl-phenyl]piperidin-4-ol] | 1000 to 10000 | 100 to 1000 | – | – | – | – |
| Cc1cc(Nc2ncn(-c3cccc(C#N)c3)n2)cc(N2CCCC2)c1 [Compound 281, 3-[3-(3-methyl-5-pyrrolidin-1-yl-anilino)-1,2,4-triazol-1-yl]benzonitrile] | 1 to 10 | ≤ 1 | – | – | – | – |
| [2H]C1([2H])N(c2cc(C)cc(Nc3ncn(-c4cc(F)cc(F)c4)n3)c2)C([2H])([2H])C([2H])([2H])N(C2COC2)C1([2H])[2H] [Compound 979, 1-(3,5-difluorophenyl)-N-[3-methyl-5-[2,2,3,3,5,5,6,6-octadeuterio-4-(oxetan-3-yl)piperazin-1-yl]phenyl]-1,2,4-triazol-3-amine] | – | – | 100 to 1000 | ≤ 1 | – | – |
| COC1CCN(c2cc(C)cc(Nc3ncn(-c4cc(F)cc(F)c4)n3)c2)CC1 [Compound 1006, 1-(3,5-difluorophenyl)-N-[3-(4-methoxy-1-piperidyl)-5-methyl-phenyl]-1,2,4-triazol-3-amine] | – | – | 10 to 100 | 1 to 10 | – | – |
| N#Cc1cc(Nc2ncn(-c3cccnc3)n2)cc(N2CCN(C3COC3)CC2)c1 [Compound 842, 3-[4-(oxetan-3-yl)piperazin-1-yl]-5-[[1-(3-pyridyl)-1,2,4-triazol-3-yl]amino]benzonitrile] | – | – | 1 to 10 | ≤ 1 | – | – |
| Fc1cc(Nc2ncn(-c3cccc(F)c3)n2)cc(N2CCCC2)c1 [Compound 435, 1-(3-fluorophenyl)-N-(3-fluoro-5-pyrrolidin-1-yl-phenyl)-1,2,4-triazol-3-amine] | – | – | – | – | 100 to 1000 | 100 to 1000 |
